Measurements as given in US10556860B2, “hTERT modulators and methods of use” (Arizona Board of Regents on Behalf of the University of …, priority 2015, dated 2020).
Values joined by “and” are separate entries in the source; they are usually repeats but may differ in a detail not shown here. Equal values may be shown once.

How the values were obtained:
[1] = test system: hTERT WT G4 (5-12 G-quadruplex); test: CD melting (Tm), hTERT WT G4; type: binding, human
Method: Circular dichroism. Oligomers of WT, G124A, G124/125A, G138/139A and G146A were synthesized and HPSF-purified by MGW Operon, Inc. For CD analysis, oligomers (5 μM) in a buffer containing 10 mM Tris-HCl (pH 7.5) and 140 mM KCl were annealed. For the CD analysis of the complex of oligomers and compounds, oligomers (5 μM) in a buffer containing 10 mM Tris-HCl (pH 7.5) and 5 mM KCl for GTC365 or 1 mM KCl for BRACO-19 were annealed. Oligomers and GTC365 or BRACO-19 were incubated overnight at room temperature. For the full-length of C-rich strand, the oligomer in a buffer of 10 mM Na cacodylate (pH 6.6) was annealed and then incubated with GTC365 overnight. CD analysis was conducted on a Jasco 810 spectropolarimeter (Jasco, Easton, Md.) using a quartz cell with 1 mm of path length, 1 nm of band width, and 1 s of response time for spectra at 20° C. Melting curves for the determination of Tm were obtained by recording ellipticity at 262 nm with increasing temperatures from 25° C. to 95° C. at a rate of 1.6° C./min. Tm of the C-rich strand with GTC365 was obtained from the CD signal at 286 nm within 10-60° C.
CD and DMS footprinting analyses were conducted to characterize the binding of GTC365 and BRACO-19 to the 5-12 G-quadruplex. […] To verify the effects of compounds on the thermal stability of the WT and the mutant G-quadruplexes, Tms were determined by CD. […] Since acridine derivatives are known to bind to telomeric G-quadruplex, the effects of GTC365 and BRACO-19 on telomeric G-quadruplex stability were compared by CD.

[2] = test system: hTERT protein; test: Western blot of hTERT protein in MCF7 cells; type: cell-based, human
Method: Western blot analysis. GTC365- or DMSO-treated MCF7 cells were lysed by RIPA buffer and the supernatant of lysate was obtained by centrifugation at 14,000 rpm for 15 min. The concentration of the whole cellular protein was determined by Bradford assay. The same amount of proteins (120 μg) was separated on 8% SDS-PAGE and transferred to PVDF membrane in 20% MeOH/1× Tris-glycine. The membrane was incubated in a blocking buffer containing 5% BSA/5% non-fat milk with TBS-T (0.1% Tween 20) for 90 min at room temperature prior to overnight incubation with hTERT antibody against rabbit (1:200, Santa Cruz #H231, pAb) in 5% BSA/TBS-T buffer at 4° C. […]
Immunoblot analysis. […] The concentration of the whole cellular protein was determined byBradford assay. […]
BCL2 is a downstream molecule to hTERT such that BCL2 expression is activated by hTERT to repress apoptosis. To further define the effect of GTC365 on the transcription of hTERT, the relative mRNA levels of MYC and BCL2 were determined by quantitative PCR analysis in MCF7 cells after treatment with GTC365 for 72 h. […] A series of GTC260 analogs were synthesized and their effect on hTERT gene expression in MCF7A and U87 cells determined (FIG. 7). […]

CN(C)c1ccc(Nc2c3ccc(NC(=O)CCN4CCCC4)cc3nc3cc(NC(=O)CCN4CCCC4)ccc23)cc1 [BRACO-19, reference compound]
increase in Tm (ΔTm) ([1]; 0.5 equivalents): 2.41 °C | increase in Tm (ΔTm) ([1]; 1 equivalent): 8.73 °C

N=C(N)NCCCS(=O)(=O)Nc1ccc(Nc2c3ccccc3nc3cc([N+](=O)[O-])ccc23)cc1 [GTC365]
increase in Tm (ΔTm) ([1]; 1 equivalent): 6.47 °C | increase in Tm (ΔTm) ([1]; 2 equivalents): 12.9 °C and 12.92 °C | hTERT protein level [2]: downregulated
